Measurements: patent publication US20250223552A1, “METHOD FOR PREPARING T CELLS FOR ADOPTIVE T CELL THERAPY” (ST. JUDE CHILDREN'S RESEARCH HOSPITAL, INC., priority 2022, published 2025)

Legend:
[1] = test system: B16-Ova tumors; experiment: B16-Ova tumor growth after adoptive transfer of inhibitor-pretreated OT-I cells; format: in vivo; settings: OT-I cells transiently treated with inhibitor during activation, transferred into tumor-bearing mice; FIG. 2
Description: Naïve OT-I CD8^+ T cells were activated with anti-CD3/CD28 in the presence or absence of Arid1a inhibitor for 48 hours followed by expansion for another 4 days. Data are representative of two independent experiments. Data are as shown mean±s.e.m. **p<0.01, ***p<0.001; two-way ANOVA.
In Vivo Tumor Transplant Experiment. For B16-Ova and MC38-Ova tumors, 0.5×10^6 tumor cells were injected subcutaneously into naïve mice (7-10 weeks of age). OT-I cells (2×10^6) were transferred i.v. 7 days after tumor injection. Tumors were measured every two days.
Effective adoptive T cell therapy for cancer is critically dependent upon the use of T cells with long-term memory potential (Lugli et al. (2020) Trends Immunol. 41:17-28; Gattinoni et al. (2012) Nat. Rev. Cancer 12:671-684; Klebanoff et al. (2005) Proc. Natl. Acad. Sci. USA 102:9571-9576; Hurton et al. (2016) Proc. Natl. Acad. Sci. USA 113: E7788-E7797). Therefore, it was determined whether manipulation of CBAF can improve anti-tumor therapy. Accordingly, OT-I cells were transduced with sgRNA for Smarcd2 or control sgRNA, and the transduced cells were transferred into animals that were subsequently infected with Lm-Ova. Animals were then inoculated with B16F10 murine melanoma cells expressing Ova (B16-Ova) at memory phase (day >30 post-infection). […]

[2] = test system: human CD8^+ T cells; experiment: Differentiation of activated human naive CD8+ T cells in vitro (TCM, TSCM, TEM markers); format: cell-based; settings: treatment during the first 48 hours; anti-CD3/CD28, culture in IL-15 or IL-2; FIG. 8
Description: Naïve human CD8^+ T cells were activated with anti-CD3/CD28 and cultured with IL-15; Arid1a inhibitor was added at the indicated time point (n=6 per group). Data are compiled from at least two independent experiments. Data are representative of two independent experiments. Data shown are as mean±s.e.m. *p<0.05, **p<0.01, ***p<0.001; one-way ANOVA.
Human Naïve CD8^+ T Cell Isolation and Stimulation. Human naive CD8^+ T cells were isolated from apheresis ring obtained from the St. Jude blood donor center. Peripheral blood mononuclear cells (PBMC) were isolated using a density gradient medium sold under the tradename LYMPHOPREP® (StemCell Inc.) following the manufacturer's protocol. Briefly, blood from apheresis ring was mixed with phosphate-buffered saline (PBS) containing 2% fetal bovine serum in 1:1 ratio. The mixture was then layered carefully on a density gradient medium sold under the tradename LYMPHOPREP®. Samples were centrifuged at 4000 rpm for 30 minutes at room temperature without braking. The PBMC layer was aspirated, washed twice with 2% fetal calf serum/PBS before isolation of naïve CD8^+ T cell using the MojoSort Human CD8^+ Naïve T Cell Isolation Kit (Biolegend). Naïve CD8^+ T cells were then stimulated with human T cell activation and expansion reagent sold under the tradename IMMUNOCULT® Human CD3/CD28 T Cell Activator (StemCell Inc.) plus 50 U/ml rhIL-2 or 10 ng/ml rhIL-15 for 2 days and expanded with 50 U/ml rhIL-2 or 10 ng/ml rhIL-15. BRD-K98645985 (1 μM; AOBIOUS or MedChemExpress) was added at the indicated time points. All human studies were in compliance with the Declaration of Helsinki. Blood donors were recruited by the Blood Donor Center at St. Jude Children's Research Hospital. Blood donors provided written consent for research use of their blood products not used in transfusions, which has been reviewed and approved by the Institutional Review Board at St. Jude Children's Research Hospital.
The effect of the Arid1a inhibitor on the differentiation of activated, human CD8^+ T cells was also analyzed. […] After 30 days, T cells were recovered and analyzed.

[3] = test system: OT-I CD8^+ T cells; experiment: OT-I CD8+ T cells activated with anti-CD3/CD28 in presence of Arid1a inhibitor, CD62L by flow cytometry; format: cell-based, mouse; settings: inhibitor 1 μM during 48 hours activation, drug removed, additional 2 days culture with IL-2; FIG. 1
Source text: Data are compiled from at least two independent experiments. Data are shown as mean±s.e.m. *p<0.05; two-tailed unpaired Student's t-test.
Flow Cytometry. Antibodies from Biolegend included APC/Cy7 anti-human CD8α, BV785 anti-human CD45RA, PE anti-human CD62L, APC anti-human CD27, PE/Cy7 anti-human CCR7, BV421 anti-human CD95, BV785 anti-mouse/human CD44, BV510 anti-mouse KLRG1, KIRAVIA Blue 520 anti-mouse CD62L, BV605 anti-mouse CD127, BV650 anti-mouse CX3CR1, APC anti-mouse CD8α, ALEXA FLUOR® 700 fluorescent dye anti-mouse CD45.2, APC anti-mouse CD98; PE anti-mouse CXCR3 (eBioscience); and BUV395 anti-human CD3, BUV805 anti-human CD45RO; BUV496 anti-mouse CD45.1, BUV805 anti-mouse CD8α were acquired from BD Biosciences. For surface markers, cells were stained for 30 minutes at 4° C. in PBS+2% (w/v) bovine serum albumin (BSA). […] Samples were acquired on CYTEK® Aurora or BD LSRII flow cytometer and analyzed with FlowJo software.
Effective adoptive T cell therapy for cancer is critically dependent upon the use of T cells with long-term memory potential (Lugli et al. (2020) Trends Immunol. 41:17-28; Gattinoni et al. (2012) Nat. Rev. Cancer 12:671-684; Klebanoff et al. (2005) Proc. Natl. Acad. Sci. USA 102:9571-9576; Hurton et al. (2016) Proc. Natl. Acad. Sci. USA 113: E7788-E7797). Therefore, it was determined whether manipulation of CBAF can improve anti-tumor therapy. […]

CO[C@H]1CN(C)C(=O)c2cc(NC(=O)NC(C)C)ccc2OC[C@H](C)N(Cc2ccc(-c3ccccn3)cc2)C[C@@H]1C [BRD-K98645985]
control of B16-Ova tumor growth in vivo by transferred OT-I cells [1]: improved the ability of OT-I cells to control | generation of cells with markers of T memory stem cells (TSCM, CD45RA^+CCR7^+CD27^+CD95^+) [2]: necessary and sufficient to promote the generation | generation of cells with markers of TCM (CD45RA-CCR7+) [2]: necessary and sufficient to promote the generation of cells with markers of TCM | numbers of cells with markers of effector memory T cells (TEM, CD45RA^+CCR7^−) [2]: reduced numbers of cells with markers of effector memory T cells | generation of cells with the TCM marker CD62L [3]: promoted the generation of cells with the TCM marker CD62L
